In ChEMBL document CHEMBL1201862, “PubChem BioAssay data set” (2004):
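Exposure lasted 48 hours, with cells grown in 96-well plates and compounds tested at five concentrations. GI50 marks 50% less growth.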 Activity calls are given as the source filed them. No stated cut-off is given here; in the data, active = GI50 up to about 1.1 µM and inactive = higher.

How the values were obtained:
Test in all cases: growth of human tumour cells (NCI), 48 h
U-251 = test system: U-251
HCC 2998 = test system: HCC 2998
M14 = test system: M14
SN12C = test system: SN12C
UACC-257 = test system: UACC-257
HL-60 = test system: HL-60
EKVX = test system: EKVX
IGROV-1 = test system: IGROV-1
SK-MEL-2 = test system: SK-MEL-2
SF-295 = test system: SF-295
NCI-H460 = test system: NCI-H460
CAKI-1 = test system: CAKI-1
K562 = test system: K562
SW-620 = test system: SW-620
HOP-62 = test system: HOP-62
LOX IMVI = test system: LOX IMVI
HT-29 = test system: HT-29
SNB-75 = test system: SNB-75

Measured: GI50

O=c1cc(/C=C/c2ccccc2)c2ccc(O/C(=C\c3ccccc3)c3nc4ccccc4c(=O)o3)cc2o1
inactive: U-251 23 µM | HCC 2998 33.3 µM | M14 18.1 µM | SN12C 26.3 µM | UACC-257 28.9 µM | HL-60 12.7 µM | EKVX 23.7 µM | IGROV-1 30.1 µM | SK-MEL-2 25.6 µM | SF-295 26.7 µM | NCI-H460 23.3 µM | CAKI-1 25.7 µM | K562 10.8 µM | SW-620 37.5 µM | HOP-62 28 µM | LOX IMVI 31.1 µM

CCOC(=O)NC(=O)c1cn(CCCCCOC(=O)NCCCCCCNC(=O)OCCCCCn2cc(C(=O)NC(=O)OCC)c(=O)[nH]c2=O)c(=O)[nH]c1=O
inactive: HT-29 > 100 µM | U-251 > 100 µM | HCC 2998 > 100 µM | M14 31 µM | SNB-75 > 100 µM | SN12C > 100 µM | UACC-257 > 100 µM | HL-60 > 100 µM | EKVX > 100 µM | IGROV-1 > 100 µM | SK-MEL-2 > 100 µM | SF-295 > 100 µM | NCI-H460 > 100 µM | CAKI-1 > 100 µM | K562 > 100 µM | SW-620 > 100 µM | HOP-62 > 100 µM | LOX IMVI > 100 µM

CC(=O)OCC1OC(n2c(-c3ccc(C)cc3)cc(-c3ccccc3)c(C#N)c2=O)C(OC(C)=O)C(OC(C)=O)C1OC(C)=O (centres undefined)
inactive: HT-29 > 100 µM | U-251 > 100 µM | HCC 2998 > 100 µM | M14 > 100 µM | SNB-75 71.6 µM | SN12C > 100 µM | UACC-257 > 100 µM | HL-60 48.9 µM | EKVX > 100 µM | IGROV-1 > 100 µM | SK-MEL-2 > 100 µM | NCI-H460 > 100 µM | CAKI-1 > 100 µM | K562 > 100 µM | SW-620 > 100 µM | HOP-62 > 100 µM | LOX IMVI > 100 µM

O=C1c2ccccc2C(=O)C2C1C1C(=O)c3ccccc3C(=O)C21 (centres undefined)
inactive: HT-29 > 100 µM | U-251 > 100 µM | HCC 2998 51.6 µM | M14 > 100 µM | SNB-75 57.4 µM | SN12C > 100 µM | UACC-257 > 100 µM | HL-60 58.9 µM | EKVX > 100 µM | IGROV-1 79.1 µM | SK-MEL-2 > 100 µM | SF-295 > 100 µM | NCI-H460 > 100 µM | CAKI-1 > 100 µM | K562 > 100 µM | SW-620 > 100 µM | HOP-62 > 100 µM | LOX IMVI 33.3 µM

Brc1ccc2c(c1)C1C(CO2)C(c2ccccc2)=NN1c1ccccc1 (centres undefined)
inactive: HT-29 54.2 µM | U-251 > 100 µM | HCC 2998 > 100 µM | SNB-75 > 100 µM | UACC-257 > 100 µM | HL-60 90.8 µM | EKVX > 100 µM | IGROV-1 > 100 µM | SK-MEL-2 > 100 µM | SF-295 > 100 µM | NCI-H460 > 100 µM | K562 78.9 µM | SW-620 > 100 µM | HOP-62 > 100 µM | LOX IMVI > 100 µM

CC1c2c(Cl)nc3ccccc3c2Oc2c1c(Cl)nc1ccccc21
inactive: HT-29 82.8 µM | U-251 61.9 µM | HCC 2998 > 100 µM | SNB-75 56 µM | UACC-257 > 100 µM | HL-60 29.6 µM | EKVX 37.6 µM | IGROV-1 > 100 µM | SK-MEL-2 64.6 µM | SF-295 67.3 µM | NCI-H460 > 100 µM | K562 46.8 µM | SW-620 99.5 µM | HOP-62 > 100 µM | LOX IMVI > 100 µM

O=C(N/N=C/c1ccccc1O)N/N=C/c1ccccc1O
inactive: HT-29 > 100 µM | U-251 > 100 µM | HCC 2998 > 100 µM | M14 > 100 µM | SNB-75 > 100 µM | SN12C > 100 µM | UACC-257 > 100 µM | HL-60 > 100 µM | EKVX > 100 µM | IGROV-1 > 100 µM | SK-MEL-2 > 100 µM | SF-295 > 100 µM | NCI-H460 > 100 µM | K562 > 100 µM | SW-620 > 100 µM | HOP-62 > 100 µM | LOX IMVI > 100 µM

COC1CCC2C(NS(=O)(=O)c3ccc(C)cc3)CCCC2O1.Cc1ccc(S(=O)(=O)NC(C)(C)C=O)cc1 (centres undefined)
inactive: HT-29 11.4 µM | U-251 > 34.5 µM | HCC 2998 33.5 µM | M14 16.7 µM | SNB-75 25 µM | SN12C 23.5 µM | UACC-257 3.29 µM | HL-60 8.18 µM | EKVX 31 µM | IGROV-1 16.4 µM | SK-MEL-2 > 34.5 µM | SF-295 8.51 µM | NCI-H460 11.6 µM | CAKI-1 20.3 µM | K562 9.68 µM | SW-620 > 34.5 µM | HOP-62 20.8 µM | LOX IMVI 5.62 µM
